# Legend:
# Details in all cases: 8-24 hr
# [1] = system: FKBP-TLR5/FRB-TLR5 model receptor system; test: NFκβ activity of FKBP-TLR5/FRB-TLR5 heterodimerization system in Jurkat-NFκβ-GFP reporter cells; type: cell-based, human
# Description: (§1) In each of the following examples, standard molecular cloning techniques were performed to assemble nucleic acid sequences encoding components of chimeric transmembrane receptor polypeptides onto plasmid backbones. Plasmids were transfected into HEK293T cells to create lentivirus. Lentivirus was transduced into all cell lines to create receptor engineered cells. Presence of the receptor was determined by a fluorescent reporter. Receptor engineered Jurkat cells or Jurkat-NFκβ-GFP and/or Jurkat-NFAT-GFP reporter cells were treated with activator for 8-24 hr. Receptor activity was measured by antibody staining or GFP expression via flow cytometry.
# The receptor was further modified to activate upon heterodimerization (A/B system) by dimerizing two different receptor constructs. FKBP heterodimerizes with FKBP-rapamycin-binding (FRB, protein fragment of human mTOR) with the addition of AP21967 (protein-protein interaction inducing macrocyclic small molecule), and an FKBP-TLR5/FRB-TLR5 model receptor system was engineered and activated with AP21967.
# [2] = system: truncated FKBP-TLR5 receptors; test: NFκβ activity of Jurkat-NFκβ-GFP reporter cells with truncated FKBP-TLR5 receptor constructs; type: cell-based, human
# Sequence of truncated FKBP-TLR5 receptors (P62942 2-108 F37V limits assumed): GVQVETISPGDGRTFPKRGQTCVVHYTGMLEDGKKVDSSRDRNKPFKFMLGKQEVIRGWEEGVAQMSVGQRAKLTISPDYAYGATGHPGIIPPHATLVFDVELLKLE
# Description: as §1
# To determine where to truncate the TLR5 ECD such that the binding domain could be redirected to expand the soluble factor repertoire, the ECD was also methodically truncated at specific locations prior to fusing to FKBP. […] The graph of FIG. 3 plots the Nκβ activity for Jurkat-NFKκβ-GFP reporter cells engineered with or without truncated receptor constructs and treated with AP20187 activator for 8-24 hr. The graph of FIG. 4 plots the NFκβ activity for Jurkat-NFκβ-GFP reporter cells engineered with or without truncated receptor constructs and treated with Flagellin activator for 8-24 hr. […]
# [3] = system: nanobody-fused chimeric transmembrane receptor polypeptide (Nb-TLR5); test: NFκβ activity of Nb-TLR5 receptor-engineered Jurkat-NFκβ-GFP reporter cells; type: cell-based
# Description: as §1
# The receptor ECD was also expanded beyond endogenous proteins to engineered nanobodies that bind to small molecules. For example, FIG. 8 presents results for a nanobody-fused chimeric transmembrane receptor polypeptide (Nb-TLR5) engineered and activated by treatment with the asymmetric monomeric small molecule, caffeine. The graph of FIG. 8 plots NFκβ activity for receptor-engineered Jurkat-NFκβ-GFP reporter cells treated with or without caffeine activator for 8-24 hr.
compound,measurement,setting,value
CO[C@H]1[C@@H](O)[C@H](C)C[C@H](C)/C=C/C=C/C=C(\C)[C@@H](c2c[nH]c3c(C)cccc23)C[C@@H]2CC[C@@H](C)[C@@](O)(O2)C(=O)C(=O)N2CCCC[C@H]2C(=O)O[C@H]([C@H](C)C[C@@H]2CC[C@@H](O)[C@H](OC)C2)C[C@H](O)[C@H](C)/C=C(\C)[C@H]1O [AP21967],NFκβ activity (FIG. 7),[1],intramembrane signal pathway activation
flagellin,"receptor activation, NFκβ activity (FIGS. 3-5)",[2],not
Cn1c(=O)c2c(ncn2C)n(C)c1=O [caffeine],NFκβ activity (FIG. 8),[3],activated

# Source: patent US20240009234A1, “SYNTHETIC OLIGOMERIZATION SYSTEMS FOR CELL ENGINEERING AND THERAPY” (The Board of Trustees of the Leland Stanford Junior …, priority 2020, published 2024)
